# Results from patent publication US20100144732A1, “PYRIMIDINE KINASE INHIBITORS” (priority 2006, published 2010).
# Molecular target: T1, aurora A kinase (Homo sapiens, UniProt O14965)
# T1 sequence (O14965 1-403): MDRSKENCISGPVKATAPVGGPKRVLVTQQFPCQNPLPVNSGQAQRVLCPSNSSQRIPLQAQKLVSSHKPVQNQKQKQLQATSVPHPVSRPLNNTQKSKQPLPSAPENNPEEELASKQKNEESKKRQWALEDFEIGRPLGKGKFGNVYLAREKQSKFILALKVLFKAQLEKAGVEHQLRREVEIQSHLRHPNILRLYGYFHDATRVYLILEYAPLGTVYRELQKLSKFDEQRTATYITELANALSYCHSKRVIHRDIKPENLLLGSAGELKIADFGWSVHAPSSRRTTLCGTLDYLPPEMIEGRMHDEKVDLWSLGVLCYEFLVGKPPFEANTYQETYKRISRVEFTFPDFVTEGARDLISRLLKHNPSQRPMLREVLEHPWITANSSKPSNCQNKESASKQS
# Test: Aurora A in vitro kinase assay (ELISA)
# Format: biochemical
# Settings: 30 μM ATP, 45 minutes
# Method: Kinase activities were measured by Enzyme-Linked Immunosorbent Assay (ELISA): Maxisorp 384-well plates (Nunc) were coated with recombinant fusion protein comprising residues 1-15 of Histone H3 fused to the N-terminus of Glutathione-S-Transferase. Plates were then blocked with a solution of 1 mg/mL I-block (Tropix Inc) in phosphate-buffered saline. Kinase reactions were carried out in the wells of the ELISA plate by combining an appropriate amount of Aur A and B kinases and/or mutants thereof with test compound and 30 μM ATP. The reaction buffer was 1× Kinase Buffer (Cell Signaling Technologies) supplemented with 1 μg/mL I-block. Reactions were stopped after 45 minutes by addition of 25 mM EDTA. After washing, susbstrate phosphorylation was detected by addition of anti-phospho-Histone H3 (Ser 10) 6G3 mAb (Cell Signaling cat #9706) and sheep anti-mouse pAb-HRP (Amersham cat# NA931V), followed by colorimetric development with TMB.
row,IC50 [nM],SMILES
1,18.1,O=C(Nc1ccccc1Nc1nc(Nc2ccc(N3CCOCC3)cc2)ncc1Cl)c1ccccc1 [compound 67]
2,1.3,N#Cc1ccc(Nc2ncc(Cl)c(Nc3ccccc3NC(=O)C3CC3)n2)cc1 [compound 32]
3,6.4,O=C(Nc1ccccc1Nc1nc(Nc2ccc(-n3cccc3)cc2)ncc1Cl)C1CC1 [compound 53]
4,12.1,CC(C)(C)C1CCC(NC(=O)c2ccc(Nc3ncc(Cl)c(Nc4ccccc4NC(=O)C4CC4)n3)cc2)CC1 (centres unmarked) [compound 40]
5,1.8,O=C(Nc1ccccc1Nc1nc(Nc2ccc(C(=O)N3CCC(O)(Cc4ccccc4)CC3)cc2)ncc1Cl)C1CC1 [compound 44]
6,4.2,CC(C)(C)C(=O)Nc1ccccc1Nc1nc(Nc2ccc(N3CCOCC3)cc2)ncc1Cl [compound 77]
7,5,Nc1ccccc1Oc1nc(Nc2ccc(N3CCS(=O)(=O)CC3)cc2)ncc1Cl [compound 83]
8,5,O=C(Nc1ccccc1Nc1nc(Nc2ccc(N3CCOCC3)cc2)ncc1F)C1CC1 [compound 111]
9,4.3,O=C(NC1CC1)c1ccccc1Nc1nc(Nc2ccc(N3CCOCC3)cc2)ncc1Cl [compound 85]
10,10.2,O=C(Nc1ccccc1Nc1nc(Nc2ccc(N3CCOCC3)cc2)ncc1[N+](=O)[O-])C1CC1 [compound 127]
11,14.1,O=C(Nc1ccccc1Nc1nc(Nc2ccc(N3CCOCC3)cc2)ncc1Cl)C1CCCCC1 [compound 75]
12,36.3,O=C(Nc1ccccc1Oc1nc(Nc2ccc(N3CCOCC3)cc2)ncc1Cl)C1CC1 [compound 80]
13,2.5,CN(C)CCNC(=O)c1ccc(Nc2ncc(Cl)c(Nc3ccccc3NC(=O)C3CC3)n2)cc1 [compound 9]
14,4.4,O=C(/C=C/c1ccccc1)Nc1ccccc1Nc1nc(Nc2ccc(N3CCOCC3)cc2)ncc1Cl [compound 63]
